From PMC6556873, “Rapid Covalent-Probe Discovery by Electrophile-Fragment Screening” (Journal of the American Chemical Society, 2019)
Like-named read-outs stand apart in the source and are kept apart here.

Key:
OTUB2 (OTUB2A) = biological target: T1, OTUB2 (OTUB2A) (Homo sapiens, UniProt Q96DC9); design: Intact protein LC/MS covalent labelling, fragments in pools of five, 200 uM each, 4 °C; conditions: 24 h, 4 °C, pool of five; 200 µM; covalent
T1 construct: full length residues 1-234, E. coli BL21(DE3)-R3, His tag removed by TEV, construct 27312 Da
T1 sequence (Q96DC9 1-234): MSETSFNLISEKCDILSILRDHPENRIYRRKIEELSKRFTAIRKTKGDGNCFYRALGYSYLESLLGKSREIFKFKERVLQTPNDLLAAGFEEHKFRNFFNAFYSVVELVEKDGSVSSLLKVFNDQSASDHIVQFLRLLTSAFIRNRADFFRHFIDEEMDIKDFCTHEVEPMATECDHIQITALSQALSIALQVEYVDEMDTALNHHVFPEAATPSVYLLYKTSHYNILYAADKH

BSA = biological target: T2, BSA (Bos taurus, UniProt P02769); design: Intact protein LC/MS covalent labelling, fragments in pools of five, 200 uM each, 4 °C; conditions: 24 h, 4 °C, pool of five; 200 µM; covalent
T2 construct: gene ALB
T2 sequence (P02769 whole entry, the tested form may be a part): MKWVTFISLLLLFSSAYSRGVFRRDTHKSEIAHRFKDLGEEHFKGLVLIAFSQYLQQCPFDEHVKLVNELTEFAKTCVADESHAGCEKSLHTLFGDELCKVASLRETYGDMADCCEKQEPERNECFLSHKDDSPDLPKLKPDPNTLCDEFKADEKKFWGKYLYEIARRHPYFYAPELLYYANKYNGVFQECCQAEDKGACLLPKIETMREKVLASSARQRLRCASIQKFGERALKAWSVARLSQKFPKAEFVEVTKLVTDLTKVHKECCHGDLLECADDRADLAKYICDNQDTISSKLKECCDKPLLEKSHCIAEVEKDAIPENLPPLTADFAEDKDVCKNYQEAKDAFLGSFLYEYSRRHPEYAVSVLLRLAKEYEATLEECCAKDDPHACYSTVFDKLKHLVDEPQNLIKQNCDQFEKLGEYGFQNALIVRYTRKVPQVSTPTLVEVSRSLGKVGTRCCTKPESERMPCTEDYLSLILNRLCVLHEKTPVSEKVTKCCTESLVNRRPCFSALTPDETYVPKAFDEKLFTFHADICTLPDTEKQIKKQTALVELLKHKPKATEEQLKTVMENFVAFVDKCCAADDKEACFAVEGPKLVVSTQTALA

PCAF = biological target: T3, PCAF (Homo sapiens, UniProt Q92831); design: Intact protein LC/MS covalent labelling, fragments in pools of five, 200 uM each, 4 °C; conditions: 24 h, 4 °C, pool of five; 200 µM; covalent
T3 construct: gene KAT2B
T3 sequence (Q92831 whole entry, the tested form may be a part): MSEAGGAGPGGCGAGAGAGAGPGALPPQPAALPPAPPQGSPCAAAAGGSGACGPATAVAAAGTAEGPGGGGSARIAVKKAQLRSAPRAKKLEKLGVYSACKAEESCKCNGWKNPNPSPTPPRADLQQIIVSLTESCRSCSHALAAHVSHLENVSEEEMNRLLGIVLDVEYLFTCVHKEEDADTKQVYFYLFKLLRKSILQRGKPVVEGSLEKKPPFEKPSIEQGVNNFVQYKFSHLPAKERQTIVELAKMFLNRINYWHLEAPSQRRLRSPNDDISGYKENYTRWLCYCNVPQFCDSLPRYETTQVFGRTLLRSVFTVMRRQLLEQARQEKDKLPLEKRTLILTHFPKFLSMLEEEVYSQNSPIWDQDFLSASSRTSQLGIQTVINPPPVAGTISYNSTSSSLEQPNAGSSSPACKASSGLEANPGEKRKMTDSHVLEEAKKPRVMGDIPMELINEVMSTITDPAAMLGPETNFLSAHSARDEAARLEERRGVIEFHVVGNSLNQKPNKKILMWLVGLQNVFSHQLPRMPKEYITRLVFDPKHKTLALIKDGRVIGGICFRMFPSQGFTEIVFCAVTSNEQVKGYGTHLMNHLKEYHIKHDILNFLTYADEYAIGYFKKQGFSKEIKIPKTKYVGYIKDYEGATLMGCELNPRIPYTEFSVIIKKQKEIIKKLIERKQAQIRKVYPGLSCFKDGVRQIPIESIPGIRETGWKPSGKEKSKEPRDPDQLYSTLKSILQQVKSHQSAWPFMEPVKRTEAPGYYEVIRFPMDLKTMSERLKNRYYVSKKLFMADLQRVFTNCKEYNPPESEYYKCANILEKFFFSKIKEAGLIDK

NUDT7 = biological target: T4, NUDT7 (Homo sapiens, UniProt P0C024); design: Intact protein LC/MS covalent labelling, fragments in pools of five, 200 uM each, 4 °C; conditions: 24 h, 4 °C, pool of five; 200 µM; covalent
T4 construct: residues 14-235, E. coli, pNIC28-Bsa4, N-terminal His6 tag removed by TEV, construct 26672 Da
T4 sequence (P0C024 14-235): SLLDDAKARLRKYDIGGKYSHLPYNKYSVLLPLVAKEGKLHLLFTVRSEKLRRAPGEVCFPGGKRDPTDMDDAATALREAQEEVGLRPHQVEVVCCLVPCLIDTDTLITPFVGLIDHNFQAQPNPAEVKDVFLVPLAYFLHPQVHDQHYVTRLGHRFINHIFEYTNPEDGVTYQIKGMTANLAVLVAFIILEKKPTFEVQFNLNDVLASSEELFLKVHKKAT

in vitro [1] = assay: in vitro; design: species or system CCD841, HEK293; conditions: human, hb2 cells, read-out: HB-2 Cells Viability (%)
in vitro [2] = assay: in vitro; design: species or system HB2, HEK293; conditions: human, ccd841 cells
in vitro [3] = assay: in vitro; design: species or system HB2, CCD841; conditions: human, hek293 cells

OTUB2 (OTUB2 (OTUB2A)) | BSA (BSA) | PCAF (PCAF) | NUDT7 (NUDT7) | Structure (SMILES) | viability at 48 h, 10 µM (in vitro [1]) | viability at 48 h, 10 µM (in vitro [2]) | viability at 48 h, 10 µM (in vitro [3])
0.08 | 0 | 0 | 0.14 | CC(c1ccc(F)c(F)c1)N(C)C(=O)CCl (stereo not drawn) [PCM-0102438] | 23.2% | 39.3% | 16.4%
0 | 0 | 0 | 0 | C=CC(=O)N1CCOC2(CCc3ccccc32)C1 (stereo not drawn) [PCM-0102439] | 99.3% | 105% | 92.3%
0 | 0 | 0 | 0.08 | C=CC(=O)NC1CCCCC1n1cccn1 (stereo not drawn) [PCM-0102440] | 91.4% | 100% | 98.5%
0 | 0 | 0 | 0 | C=CC(=O)N1CCN(c2nc3ccccc3o2)C(C)C1 (stereo not drawn) [PCM-0102441] | 96.7% | 99.4% | 88.3%
0.24 | 0 | 0 | 0 | C=CC(=O)N1CC2CC3CC(C2)CC1C3 [PCM-0102443] | 99.9% | 115% | 97.7%
0 | 0 | 0 | 0 | C=CC(=O)N1CCC(N2CCS(=O)(=O)CC2)CC1 [PCM-0102444] | 102% | 109% | 93.6%
0 | 0 | 0 | 0.38 | C=CC(=O)NC1(CO)Cc2ccccc2C1 [PCM-0102446] | 101% | 103% | 88.4%
0 | 0 | 0 | 0 | C=CC(=O)N1C(C)CNCC1C.O=C(O)C(F)(F)F (stereo not drawn) [PCM-0102447] | 104% | 109% | 105%
0 | 0 | 0 | 0.05 | C=CC(=O)NCC1=CCCOC1 [PCM-0102448] | 102% | 104% | 79.4%
0 | 0 | 0 | 0 | C=CC(=O)N1CCN(C(=O)OCC(C)C)CC1 [PCM-0102449] | 103% | 80.1% | 76.6%
0 | 0 | 0 | 0 | C=CC(=O)NC1(C2CC2)CCOCC1 [PCM-0102450] | 96.2% | 106% | 111%
0 | 0 | 0 | 0 | C=CC(=O)N1CCCN(C(=O)Oc2ccccc2)CC1 [PCM-0102451] | 96.2% | 105% | 93.9%
0.07 | 0 | 0 | 0 | N#Cc1c(NC(=O)CCl)sc2c1CCC2 [PCM-0102452] | 87.2% | 93.5% | 96.6%
0 | 0 | 0 | 0 | C=CC(=O)Nc1ccc(Cl)c(C#N)c1 [PCM-0102453] | 85.7% | 86.4% | 59.5%
0 | 0 | 0 | 1 | C=CC(=O)Nc1sc2c(c1C#N)CCCC2 [PCM-0102455] | 64.1% | 72.5% | 81.4%
0 | 0 | 0 | 0 | O=C(CCl)NCC(F)(F)F [PCM-0102456] | 102% | 99.4% | 91.9%
0 | 0 | 0 | 0 | C=CC(=O)N1CCC(S(=O)(=O)NC)C1 (stereo not drawn) [PCM-0102463] | 97.2% | 104% | 99.6%

OTUB2 (OTUB2 (OTUB2A)) | BSA (BSA) | PCAF (PCAF) | NUDT7 (NUDT7) | Structure (SMILES) | viability at 48 h, 10 µM (in vitro [1]) | viability at 48 h, 10 µM (in vitro [2]) | viability at 48 h, 10 µM (in vitro [3])
0 | 0 | 0 | 0 | N#CC1(NC(=O)CCl)CCCCCC1 [PCM-0102465] | 80.7% | 72.3% | 43.5%
0 | 0 | 0 | 0 | N#CSc1ccc(NC(=O)CCl)c(Br)c1 [PCM-0102466] | 23.2% | 29.3% | 48.4%
0.08 | 0 | 0 | 0 | O=C(CCl)N1CCN(S(=O)(=O)c2ccccc2)CC1 [PCM-0102468] | 12.6% | 54.9% | 15%
0.38 | 0 | 0 | 0 | O=C(CCl)NNC(=O)c1cccc(Cl)c1 [PCM-0102470] | 84.7% | 81.3% | 94.8%
0 | 0 | 0 | 0 | CC(C)n1nccc1NC(=O)CCl.Cl [PCM-0102472] | 92.7% | 107% | 101%
0 | 0 | 0 | 0.1 | CC(c1ccccc1)N(C)C(=O)CCl (stereo not drawn) [PCM-0102478] | 27.5% | 60.7% | 27.5%
0 | 0 | 0 | 0 | C=CC(=O)NC1CCCN(c2cnn(C)c2)C1 (stereo not drawn) [PCM-0102480] | 99.5% | 96.4% | 91.8%
0 | 0 | 0 | 0 | C=CC(=O)NCC1CC12CCOCC2 (stereo not drawn) [PCM-0102481] | 97% | 110% | 103%
0 | 0 | 0 | 0 | C=CC(=O)NCc1ccon1 [PCM-0102482] | 98.9% | 92.9% | 90.3%
0 | 0.12 | 0 | 0 | C=CC(=O)N1CCCc2[nH]c3ccc(F)cc3c2C1 [PCM-0102485] | 95.2% | 106% | 105%
0 | 0 | 0 | 0 | C=CC(=O)NC1CCc2cnn(C(C)C)c2C1 (stereo not drawn) [PCM-0102487] | 95.5% | 120% | 97.7%
0 | 0 | 0 | 0 | C=CC(=O)N1CCCN(S(=O)(=O)c2cccc3cnccc23)CC1 [PCM-0102491] | 99.3% | 100% | 99.9%
0 | 0 | 0 | 0 | C=CC(=O)Nc1ccccc1OC [PCM-0102493] | 98.2% | 105% | 74.7%
0 | 0 | 0 | 0 | O=C(CCl)NC(=O)NCc1ccco1 [PCM-0102494] | 75.2% | 85.4% | 86.6%
0 | 0 | 0 | 0 | NC(=O)C1CCCN(C(=O)CCl)C1 (stereo not drawn) [PCM-0102495] | 92.7% | 93% | 81.7%
0.05 | 0 | 0 | 0 | Cl.O=C(CCl)NCc1cccnc1 [PCM-0102497] | 106% | 90.2% | 107%
